Here are results for one compound from US12616681B2, “Compositions and methods for treating renal injury” (priority 2019, dated 2026).

Format in all cases: in vivo, C57/BL6 mice
Experiment [1] has as its system mice with ischemic AKI (bilateral renal IRI). Kind of experiment: Renal IRI model: necrotic and apoptotic cell death, gross pathology. Particulars: 24 h after renal IRI; 5 mg/kg ip three times. The text has this: To evaluate necrosis, 5-μm-thick paraffin sections were stained with hematoxylin and eosin. Tubular injury of individual slides was scored semi-quantitatively according to a scoring system by a pathologist in a blinded manner. The scoring system was as follows: 0, no damage; 1, patchy isolated unicellular necrosis; 2, tubular necrosis <25%; 3, tubular necrosis 25-50%; and 4, tubular necrosis >50%. To analyze the frequency of apo ptosis, 5-μm-thick paraffin sections were subjected to a TUNEL assay (Millipore, Temecula, CA) according to the manufacturer's protocol. TUNEL-positive cells were counted in at least five separate fields (64 magnification) in the outer medulla, and the apoptosis index (in %, number of apoptosis cells/total number of cells) was calculated using GENASIS software.

The test system is the same in experiment [2]. Put plainly: Renal IRI model: proinflammatory cytokines and HMGB1. Particulars: 24 h after renal IRI, vs IRI-vehicle mice. As for the experimental part: Inflammatory cytokine mRNA and protein levels were measured by real-time PCR and ELISA. Kidney tissue and serum were harvested after reperfusion for 24 h. Total RNA was extracted from frozen kidney tissue using TRIzol reagent (ThermoFisher Scientific) according to the manufacturer's protocol. RNA was converted to cDNA using oligo-dT primers. IL-17, TNF-α, and IL-1b mRNA levels were determined by real-time PCR. Serum IL-17 (R&D Systems), TNF-α (R&D Systems), and IL-10 (R&D Systems) were measured using commercial ELISA kits according to the manufacturer's instructions.

Experiment [3] shares this test system. Kind of experiment: Renal IRI model: renal and serum PGE2 after a single pre-IRI dose. As for the experimental part: After reperfusion for 24 h, kidney tissues (˜20 mg) were homogenized in cold PBS containing indomethacin (10 μg/mL) and then centrifuged for 10 min at 12,000 rpm. Protein concentrations of supernatant were determined by BCA assay (ThermoFisher Scientific, Rockford, IL). The PGE2 level was measured using a PGE2 ELISA kit (R&D Systems, Minneapolis, MN) in triplicate. PGE2 levels were expressed as nanograms of PGE2 per milligram of protein. Renal function was assessed by determining the serum levels of blood urea nitrogen (BUN; Abcam), serum creatinine (Agilent 6410 LC-MS/MS, Agilent, Santa Clara, CA), lipocalin-2 (R&D Systems), and kidney injury molecule-1 (KIM-1; R&D Systems) after reperfusion for 24 h. Measurement of serum creatinine was by HPLC. Serum creatinine was assessed using an Agilent 6410 LC-MS/MS system coupled with an Agilent 1200 series HPLC system (Agilent). The sample preparation for serum creatinine was that 50 μL of serum samples were mixed with 100 μL of acetonitrile that contained creatinine-d3 as an internal standard (5 μg/mL). The mixture was centrifuged at 13,000 rpm for 10 min after vigorous vortex, and 1 μL of supernatant was then injected into the LC-MS/MS system. The chromatography separation was performed on a Hypersil GOLD C18 column (150×2.1 mm, 3 m, Thermo Scientific) using a mobile phase of 0.1% formic acid solution and acetonitrile [70:30 (vol/vol)]. The flow rate was 0.2 mL/min. Electrospray ionization was performed in the positive ion mode. The capillary voltage was set at 4,000 V. Nitrogen as the nebulizing gas was set at 15 psi, and the drying gas temperature was set at 300° C., with a flow rate of 6 L/min. The multiple-reaction monitoring mode using specific precursor/production transition was used for quantification. Detection of ions was performed by monitoring m/z 114.1→44.1 for creatinine and 117.1→77.1 for creatinine-d3. The collision energies were 10 and 15 eV for creatinine and creatinine-d3, respectively. The peak areas for all analytes were integrated automatically using Agilent Mass Hunter Analysis software (version B.01.04).

The test system of experiment [4] is contrast-induced acute kidney injury (CIAKI) mice. Put plainly: CIAKI mouse model: renal function (serum creatinine, NGAL, KIM-1). As for the experimental part:
Female mice were injected with 10 gI/kg of Visipaque (iodixanol) via the tail vein. […] For inhibition of the EP4s, mice were treated with 0.2 mg/kg/day of ONO-AE3-208 by subcutaneous injection for 14 days. Serum and kidney tissue were collected 48 h after the iodixanol injection.
Renal function was assessed by determining the serum levels of creatinine (Arbor Assays, Ann Arbor, MI, USA), NGAL (R&D Systems), and KIM-1 (R&D Systems) at 48 h after the iodixanol injection.

On to `CCCC[S+]([O-])c1sc2nc(-c3cccs3)cc(-c3ccccc3)c2c1N` (stereo not shown) [SW033291], for which, in experiment [1], the “count of TUNEL-positive apoptotic cells” value is listed as “reducing”, the “histological renal injury score” value is “reducing” and the “tissue congestion in the outer medulla (gross pathology)” value is listed as “ameliorated”. In experiment [2], the “HMGB1 levels in kidney tissue” value is recorded as “reduced”, the “induction of IL-10 (protein only)” value was “blocked induction”, the “induction of IL-17” value is reported as “blocked induction” and the “induction of TNF-α” value is “blocked induction”. In experiment [3] (24 h, single pretreatment dose), the “renal PGE2 levels” value is reported as “significantly decreased” and the “serum PGE2 levels” value is “significantly decreased”. In addition, the “post-IRI peaks of renal PGE2 (immediate and 14 h)” value in experiment [3] (single pre-IRI dose) is “substantially block”. Also, in experiment [4] (CIAKI mice (FIG. 15E), SW033291 line = CM + SW033291, ONO-AE3-208 line = CM + ONO-AE3-208 + SW033291), the “serum creatinine, absence or presence of ONO-AE3-208” value was 0.50 ± 0.10 mg/dL. In addition, the “serum NGAL, absence or presence of ONO-AE3-208” value in experiment [4] (CIAKI mice (FIG. 15F), SW033291 line = CM + SW033291, ONO-AE3-208 line = CM + ONO-AE3-208 + SW033291) was found to be 140.41 ± 25.52 ng/mL. For the same compound, in experiment [4] (CIAKI mice (FIG. 15G), SW033291 line = CM + SW033291, ONO-AE3-208 line = CM + ONO-AE3-208 + SW033291), the “serum KIM-1, absence or presence of ONO-AE3-208” value amounted to 0.09 ± 0.05 ng/mL. For the same compound, in experiment [4] (CIAKI mice, CM + drug, 48 h after CM (FIG. 11C)), the serum creatinine worked out at 1.10 ± 0.11 mg/dL. For the same compound, the “serum NGAL” value in experiment [4] (CIAKI mice, CM + drug, 48 h after CM (FIG. 11D)) was 140.41 ± 25.52 ng/mL. The “serum KIM-1” value in experiment [4] (CIAKI mice, CM + drug, 48 h after CM (FIG. 11E)) came to 0.43 ± 0.30 ng/mL.
